System: HCV replicon (5-2 Luc replicon-comprising cells)
Experiment: HCV replicon assay (luciferase)
Format: cell-based
Details: Hepatitis C virus; 5-2 Luc replicon cells, 24 hours with compound, luciferase activity
Description: In one embodiment, the inhibitory activity of the compounds can be confirmed in a replicon assay that assesses the ability of a test compound to block or inhibit HCV replication in replicon cells. One example of a suitable replicon assay is the liver cell-line Huh 7-based replicon assay described in Lohmann et al., 1999, Science 285:110-113. A specific example of this replicon assay which utilizes luciferase translation is provided in the Examples Section. In one embodiment of this assay, the amount of test compound that yields a 50% reduction in translation as compared to a control cell (IC50) may be determined.
The inhibitory activity of certain exemplary compounds of the invention was confirmed using an HCV replicon assay. The HCV replicon can include such features as the HCV 5′ untranslated region including the HCV IRES, the HCV 3′ untranslated region, selected HCV genes encoding HCV polypeptides, selectable markers, and a reporter gene such as luciferase, GFP, etc. In the assay, actively dividing 5-2 Luc replicon-comprising cells (obtained from Ralf Bartenschlager; see Lohmann et al., 1999, Science 285:110-113) were seeded at a density of between about 5,000 and 7,500 cells/well onto 96 well plates (about 90 μl of cells per well) and incubated at 37° C. and 5% CO2 for 24 hours. Then, the test compound (in a volume of about 10 μl) was added to the wells at various concentrations and the cells were incubated for an additional 24 hours before luciferase assay. Briefly, the Bright-Glo reagent was diluted 1:1 with PBS and 100 μl of diluted reagent was added to each well. After 5 min of incubation at room temperature, luciferin emission was quantified with a luminometer. In this assay, the amount of test compound that yielded a 50% reduction in luciferase activity (IC50) was determined.

**Q.** `O=C(Nc1cccc(-c2cc(-c3c(Cl)cccc3Cl)on2)c1)C(Cl)Cl` [Compound 39, 2,2-Dichloro-N-[3-[5-(2,6-dichlorophenyl)-3-isoxazolyl]phenyl]Acetamide] was tested. Which IC50 did it give?
**A.** Its IC50 is less than 10 µM.

**Q.** With `O=C(Nc1ccc(-c2cc(-c3ccccc3Cl)no2)cc1)C(Cl)Cl` [Compound 55, 2,2-Dichloro-N-[4-[3-(2-chlorophenyl)-5-isoxazolyl]phenyl]Acetamide] as the compound, how does the IC50 read?
**A.** Its IC50 is no more than 10 µM.

**Q.** `O=C(Nc1ccc(-c2cc(-c3c(F)cccc3F)no2)cc1)C(Cl)Cl` [Compound 59, 2,2-Dichloro-N-[4-[3-(2,6-difluorophenyl)-5-isoxazolyl]phenyl]Acetamide] was tested. Which IC50 did it give?
**A.** The IC50 was no more than 10 µM.

Reference: patent US7326790B2, “Diphenylisoxazole compounds and hydro isomers thereof” (Rigel Pharmaceuticals, Inc., priority 2003, dated 2008)
